Reference: US4767770A, “Method of inhibiting aromatase” (Eli Lilly and Company, priority 1984, dated 1988)
Read-outs that look alike come from different tables or passages of the source.

Legend:
[1] = biological target: T1, aromatase (Rattus norvegicus, UniProt P22443); assay: biochemical
T1 sequence (P22443 1-508): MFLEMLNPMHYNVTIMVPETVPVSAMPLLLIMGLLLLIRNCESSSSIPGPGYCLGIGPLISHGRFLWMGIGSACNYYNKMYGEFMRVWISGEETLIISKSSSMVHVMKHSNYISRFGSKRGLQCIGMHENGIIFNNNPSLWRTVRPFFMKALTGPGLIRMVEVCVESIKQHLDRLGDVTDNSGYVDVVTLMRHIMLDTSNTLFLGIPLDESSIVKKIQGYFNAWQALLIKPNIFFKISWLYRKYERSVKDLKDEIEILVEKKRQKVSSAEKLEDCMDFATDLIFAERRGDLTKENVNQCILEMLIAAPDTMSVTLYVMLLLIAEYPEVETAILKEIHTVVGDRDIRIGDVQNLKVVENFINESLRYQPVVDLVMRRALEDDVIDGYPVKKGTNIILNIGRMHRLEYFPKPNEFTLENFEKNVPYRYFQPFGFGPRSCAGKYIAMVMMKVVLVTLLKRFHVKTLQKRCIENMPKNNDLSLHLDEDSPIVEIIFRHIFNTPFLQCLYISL
Description: In this test system, ovarian microsomes are obtained from rats treated with pregnant mares serum gonadotropin. Test compounds are added to reaction vials containing 0.1 μM 4-androstene-3,17-dione, 100,000 dpm 1,2[^3 H]-androstenedione, the microsomes and a NADPH generating system. The concentrations of the inhibitors tested ranged between 0.005 and 10 μM.

[2] = tested on: estrogen synthesis (aromatization); uterus; assay: Estrogen Synthesis Inhibition in Rats: uterine weight of testosterone propionate-treated immature rats; assay type: in vivo, immature female Wistar rats; conditions: 7 days
Description: Immature female Wistar rats (45-55 grams) were divided into control and test groups of 2-8 animals each. Test compounds were administered for seven days as a component of the diet. Control animals received diet without the test compound. Beginning on the fourth day of the test, all animals treated with the test compound and one half of the control animals were given a subcutaneous injection of 1.0 mg of testosterone propionate in corn oil. The remaining control animals received only an equivalent volume of corn oil. On the seventh day of the test, rats treated with testosterone propionate were injected subcutaneously with 100 μCi of [^3 H]-testosterone in 50 μl of 3:1 (v/v) saline-ethanol.
After two hours, the animals were killed by decapitation. Uteri were isolated, trimmed of extraneous connective tissue, and weighed. […] In the control animals treated with testosterone propionate, estrogens produced by aromatization stimulated the uterus resulting in an increase in weight.
*ppm in feed. 300 ppm corresponds to approximately 30 mg/kg/day; 200 ppm
corresponds to approximately 20 mg/kg/day; 30 ppm corresponds to
approximately 3 mg/kg/day.

[3] = tested on: estrogen synthesis (ovarian estradiol, estrone, estriol); assay: Estrogen Synthesis Inhibition in Rats: ovarian steroid concentration after [3H]-testosterone; assay type: in vivo, immature female Wistar rats; conditions: 7 days
Description: Test compounds were administered for seven days as a component of the diet. Control animals received diet without the test compound. Beginning on the fourth day of the test, all animals treated with the test compound and one half of the control animals were given a subcutaneous injection of 1.0 mg of testosterone propionate in corn oil. The remaining control animals received only an equivalent volume of corn oil.
The ovarian steroids were extracted with 1.5 ml of 9:1 (v/v) toluene/ethanol to which had been added 25 to 100 mcg each of unlabelled estradiol, estriol, and estrone, and approximately 1000 dpm of [^14 C]-estradiol. The samples were vortexed, centrifuged at 500×g for 10 minutes, and the organic phase was transferred to a conical vial. Two additional extractions were performed on the residue in the same way. The pooled organic extracts were evaporated for subsequent thin-layer chromatography.
Ovarian proteins were precipitated by the addition of 5.0 ml of ethanol to the remaining aqueous phase. After an overnight incubation at 4° C., the samples were centrifuged at 1500×g for 10 minutes. The supernatant was discarded and the pellet was dissolved in 0.3N potassium hydroxide.
The organic residue from each above extraction was redissolved in 9:1 (v/v) dichloromethane/methanol. The solution of each sample was applied to separate silica gel thin layer chromatography plates which contained a fluorescent indicator. The plates were developed in the first dimension with 160:38:1.5:0.5 (v/v/v/v) dichloromethane/ethyl acetate/methanol/acetic acid to within 3 cm of the top of the plate. After air-drying, the plate was developed in the second dimension with 180:19:1 (v/v/v) dichloromethane/methanol/ammonium hydroxide.
The spots were scraped from the plate using a glass wool plugged Pasteur pipet attached to a vacuum line. The steroids were eluted directly into scintillation vials by the addition of 0.2 ml of dichloromethane followed by two washes each of 2.0 ml of methanol. The organic solvent was evaporated and 10.0 ml of scintillation fluid (Beckman Ready Solv-NA) was added to the vials. Samples were analyzed by liquid scintillation spectrometry. Corrections were made based on the recoveries of the [^14 C]-steroid. Steroid concentrations are expressed as femtomoles per milligram protein.

[4] = tested on: DMBA-induced mammary tumors; assay: DMBA-induced Mammary Tumor Inhibition; assay type: in vivo, female Sprague-Dawley rats; conditions: 300 ppm in diet (approx. 30 mg/kg/day); for Mean Tumor Area, Start: baseline
Description: Mammary tumors were produced in female Sprague-Dawley rats which were 50-60 days old by the gavage administration of 20 mg of 7,12-dimethylbenz[a]anthracene (DMBA). About six weeks after DMBA administration, the mammary glands were palpated at weekly intervals for the appearance of tumors. Whenever one or more tumors appeared and were measurable in an animal, that animal was selected for experimentation. […] Each control and test group contained 8 animals. The test compound was administered mixed into the food at a concentration of 300 ppm (corresponding to an appropriate daily dose of 30 mg/kg). Every experiment included a group of control rats having tumors and were given food without the compound admixed. […] The area of each tumor was calculated by multiplying the shortest and longest diameters of the tumor. The treatment and measurement of animals continued for 4-5 weeks at which time the final areas of the tumors were determined. For each compound (and control) at each dose level, the change in the mean tumor area was determined.
*dosed in the diet. 300 ppm corresponds to approximately 30 mg/kg/day.

[5] = tested on: breast cancer; conditions: result in words; see Cancer Research, Vol. 42, Suppl. 8:3261s (1982); cited from earlier work

Fc1ccc(N(Cc2cccnc2)C2=NCCS2)c(F)c1 [N--(2,4-difluorophenyl)-N--(4,5-dihydro-2-thiazolyl)-3-pyridinemethanamine]
EC50 ([1]; rat ovarian microsomes, substrate (androstenedione) 0.1 μM): 0.028 µM
Mean Uterine Weight ([2]; Test II, 30 ppm in feed (approx. 3 mg/kg/day), testosterone-treated control 176.7): 140.0 mg
Mean Uterine Weight ([2]; Test II, 300 ppm in feed (approx. 30 mg/kg/day), value marked + (p < 0.05 vs testosterone-treated control, 176.7)): 104.5 mg
Mean Steroid Concentration, estrone ([3]; Test II, 30 ppm in feed (approx. 3 mg/kg/day), testosterone-treated control 0.64): 0.65 femtomoles per milligram of protein
Mean Steroid Concentration, estriol ([3]; Test II, 30 ppm in feed (approx. 3 mg/kg/day), testosterone-treated control 1.98): 1.56 femtomoles per milligram of protein
Mean Steroid Concentration, estradiol ([3]; Test II, 30 ppm in feed (approx. 3 mg/kg/day), testosterone-treated control 2.07): 1.27 femtomoles per milligram of protein
Mean Steroid Concentration, estriol ([3]; Test II, 300 ppm in feed (approx. 30 mg/kg/day), testosterone-treated control 1.98): 1.18 femtomoles per milligram of protein
Mean Steroid Concentration, estrone ([3]; Test II, 300 ppm in feed (approx. 30 mg/kg/day), value marked + (p < 0.05 vs testosterone-treated control, 0.64)): 0.31 femtomoles per milligram of protein
Mean Steroid Concentration, estradiol ([3]; Test II, 300 ppm in feed (approx. 30 mg/kg/day), value marked + (p < 0.05 vs testosterone-treated control, 2.07)): 1.05 femtomoles per milligram of protein
Mean Tumor Area, Start ([4]; Test I, 5 weeks, control 73.9): 83.6 mm^2
Mean Tumor Area, Finish ([4]; Test I, 5 weeks, control 1140.0): 536.0 mm^2

Clc1ccc(N(Cc2cccnc2)C2=NCCS2)cc1 [N--(4-chlorophenyl)-N--(4,5-dihydro-2-thiazolyl)-3-pyridinemethanamine]
EC50 [1]: 0.068 µM
Mean Uterine Weight ([2]; Test I, 30 ppm in feed (approx. 3 mg/kg/day), value marked + (p < 0.05 vs testosterone-treated control, 211.5)): 141.5 mg
Mean Uterine Weight ([2]; Test I, 300 ppm in feed (approx. 30 mg/kg/day), value marked + (p < 0.05 vs testosterone-treated control, 211.5)): 136.0 mg
Mean Steroid Concentration, estrone ([3]; Test I, 30 ppm in feed (approx. 3 mg/kg/day), testosterone-treated control 0.10): 0.31 femtomoles per milligram of protein
Mean Steroid Concentration, estriol ([3]; Test I, 30 ppm in feed (approx. 3 mg/kg/day), testosterone-treated control 0.24): 0.27 femtomoles per milligram of protein
Mean Steroid Concentration, estradiol ([3]; Test I, 30 ppm in feed (approx. 3 mg/kg/day), testosterone-treated control 1.43): 1.46 femtomoles per milligram of protein
Mean Steroid Concentration, estrone ([3]; Test I, 300 ppm in feed (approx. 30 mg/kg/day), testosterone-treated control 0.10): 0.09 femtomoles per milligram of protein
Mean Steroid Concentration, estriol ([3]; Test I, 300 ppm in feed (approx. 30 mg/kg/day), testosterone-treated control 0.24): 0.46 femtomoles per milligram of protein
Mean Steroid Concentration, estradiol ([3]; Test I, 300 ppm in feed (approx. 30 mg/kg/day), testosterone-treated control 1.43): 1.42 femtomoles per milligram of protein
Mean Tumor Area, Start ([4]; Test II, 4 weeks, control 62.8): 61.4 mm^2
Mean Tumor Area, Finish ([4]; Test II, 4 weeks, control 1087.0): 464.0 mm^2

CCC1(c2ccc(N)cc2)CCC(=O)NC1=O (stereo not drawn) [aminoglutethimide]
effect in treatment of breast cancer [5]: beneficial effect in treatment of breast cancer

C[C@]12C=CC(=O)C=C1CC[C@@H]1[C@@H]2CC[C@]2(C)OC(=O)CC[C@@H]12 [testolactone]
effect in treatment of breast cancer [5]: beneficial effect in treatment of breast cancer
